PubChem BioAssay (NCI)
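Cells were grown in 96-well plates and exposed to each compound for 48 hours at five concentrations; endpoints were interpolated linearly between bracketing concentrations, or set to the highest concentration if not reached. TGI: total growth inhibition.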

How the values were obtained:
Experiment in all cases: inhibition of tumour cell growth, NCI panel, 48 h
HCT-15 colon = system: HCT-15 colon
OVCAR-4 ovarian = system: OVCAR-4 ovarian
BT-549 breast = system: BT-549 breast
M14 melanoma = system: M14 melanoma
HOP-92 NSCLC = system: HOP-92 NSCLC
SF-295 CNS = system: SF-295 CNS
MDA-N = system: MDA-N
RXF 393 renal = system: RXF 393 renal
SNB-75 CNS = system: SNB-75 CNS
HOP-62 NSCLC = system: HOP-62 NSCLC
MALME-3M melanoma = system: MALME-3M melanoma
OVCAR-8 ovarian = system: OVCAR-8 ovarian
COLO 205 colon = system: COLO 205 colon
OVCAR-5 ovarian = system: OVCAR-5 ovarian
MOLT-4 leukemia = system: MOLT-4 leukemia
KM12 colon = system: KM12 colon
SK-MEL-5 melanoma = system: SK-MEL-5 melanoma
SN12C renal = system: SN12C renal
LOX IMVI melanoma = system: LOX IMVI melanoma
HL-60(TB) leukemia = system: HL-60(TB) leukemia
DU-145 prostate = system: DU-145 prostate
SF-268 CNS = system: SF-268 CNS
U251 CNS = system: U251 CNS
NCI-H226 lung = system: NCI-H226 lung
A549 NSCLC = system: A549 NSCLC
NCI/ADR-RES ovarian = system: NCI/ADR-RES ovarian
HCT-116 colon = system: HCT-116 colon
SK-OV-3 ovarian = system: SK-OV-3 ovarian
NCI-H23 lung = system: NCI-H23 lung
MDA-MB-231 breast = system: MDA-MB-231 breast
OVCAR-3 ovarian = system: OVCAR-3 ovarian
MDA-MB-435 = system: MDA-MB-435
ACHN renal = system: ACHN renal
SF-539 CNS = system: SF-539 CNS
T-47D breast = system: T-47D breast
MCF7 breast = system: MCF7 breast
HS 578T breast = system: HS 578T breast
UO-31 renal = system: UO-31 renal
PC-3 prostate = system: PC-3 prostate
NCI-H522 lung = system: NCI-H522 lung
HT29 colon = system: HT29 colon
UACC-62 melanoma = system: UACC-62 melanoma
UACC-257 melanoma = system: UACC-257 melanoma
CAKI-1 renal = system: CAKI-1 renal
CCRF-CEM leukemia = system: CCRF-CEM leukemia
TK-10 renal = system: TK-10 renal
IGROV1 ovarian = system: IGROV1 ovarian
EKVX NSCLC = system: EKVX NSCLC
K-562 leukemia = system: K-562 leukemia
RPMI-8226 leukemia = system: RPMI-8226 leukemia
NCI-H460 lung = system: NCI-H460 lung
SNB-19 CNS = system: SNB-19 CNS
786-0 renal = system: 786-0 renal
SW-620 colon = system: SW-620 colon
A498 renal = system: A498 renal
SK-MEL-2 melanoma = system: SK-MEL-2 melanoma
SK-MEL-28 melanoma = system: SK-MEL-28 melanoma
HCC-2998 colon = system: HCC-2998 colon

Compound N#Cc1cc(-c2nc3ccc(F)cc3s2)ccc1N has a TGI (HCT-15 colon) greater than 100 µM, a TGI (OVCAR-4 ovarian) greater than 100 µM and a TGI (BT-549 breast) greater than 100 µM. The TGI (M14 melanoma) was greater than 100 µM, the TGI (HOP-92 NSCLC) was greater than 100 µM and the TGI (SF-295 CNS) was greater than 100 µM. It also gave a TGI (MDA-N) greater than 100 µM, a TGI (RXF 393 renal) greater than 100 µM and a TGI (SNB-75 CNS) greater than 100 µM. The TGI (HOP-62 NSCLC) was greater than 100 µM, the TGI (MALME-3M melanoma) was greater than 100 µM and the TGI (OVCAR-8 ovarian) was greater than 100 µM. It also gave a TGI (COLO 205 colon) greater than 100 µM, a TGI (OVCAR-5 ovarian) greater than 100 µM and a TGI (MOLT-4 leukemia) greater than 100 µM. It also gave a TGI (KM12 colon) greater than 100 µM, a TGI (SK-MEL-5 melanoma) greater than 100 µM and a TGI (SN12C renal) greater than 100 µM. It also gave a TGI (LOX IMVI melanoma) greater than 100 µM, a TGI (HL-60(TB) leukemia) greater than 100 µM and a TGI (DU-145 prostate) greater than 100 µM. The TGI (SF-268 CNS) was greater than 100 µM, the TGI (U251 CNS) was greater than 100 µM and the TGI (NCI-H226 lung) was greater than 100 µM. For the same compound, the TGI (A549 NSCLC) was greater than 100 µM, the TGI (NCI/ADR-RES ovarian) was greater than 100 µM and the TGI (HCT-116 colon) was greater than 100 µM. For the same compound, the TGI (SK-OV-3 ovarian) was 96.6 µM, the TGI (NCI-H23 lung) was greater than 100 µM and the TGI (MDA-MB-231 breast) was greater than 100 µM. It also gave a TGI (OVCAR-3 ovarian) greater than 100 µM, a TGI (MDA-MB-435) greater than 100 µM and a TGI (ACHN renal) greater than 100 µM. The TGI (SF-539 CNS) was greater than 100 µM, the TGI (T-47D breast) was greater than 100 µM and the TGI (MCF7 breast) was greater than 100 µM. The TGI (HS 578T breast) was greater than 100 µM, the TGI (UO-31 renal) was greater than 100 µM and the TGI (PC-3 prostate) was greater than 100 µM. It also gave a TGI (NCI-H522 lung) greater than 100 µM, a TGI (HT29 colon) greater than 100 µM and a TGI (UACC-62 melanoma) greater than 100 µM. For the same compound, the TGI (UACC-257 melanoma) was greater than 100 µM, the TGI (CAKI-1 renal) was greater than 100 µM and the TGI (CCRF-CEM leukemia) was greater than 100 µM. The TGI (TK-10 renal) was greater than 100 µM, the TGI (IGROV1 ovarian) was greater than 100 µM and the TGI (EKVX NSCLC) was greater than 100 µM. It also gave a TGI (K-562 leukemia) greater than 100 µM, a TGI (RPMI-8226 leukemia) greater than 100 µM and a TGI (NCI-H460 lung) greater than 100 µM. It also gave a TGI (SNB-19 CNS) greater than 100 µM, a TGI (786-0 renal) greater than 100 µM and a TGI (SW-620 colon) greater than 100 µM. For the same compound, the TGI (A498 renal) was greater than 100 µM.
Compound CCCCCCCCCCCC(=O)c1c(O)cc(C)oc1=O has a TGI (HCT-15 colon) greater than 100 µM, a TGI (BT-549 breast) greater than 100 µM and a TGI (M14 melanoma) greater than 100 µM. For the same compound, the TGI (SF-295 CNS) was greater than 100 µM, the TGI (MDA-N) was greater than 100 µM and the TGI (SK-MEL-2 melanoma) was greater than 100 µM. The TGI (SNB-75 CNS) was greater than 100 µM, the TGI (HOP-62 NSCLC) was greater than 100 µM and the TGI (MALME-3M melanoma) was greater than 100 µM. The TGI (OVCAR-8 ovarian) was greater than 100 µM, the TGI (COLO 205 colon) was greater than 100 µM and the TGI (OVCAR-5 ovarian) was greater than 100 µM. The TGI (MOLT-4 leukemia) was greater than 100 µM, the TGI (KM12 colon) was greater than 100 µM and the TGI (SK-MEL-5 melanoma) was 68.6 µM. The TGI (SN12C renal) was greater than 100 µM, the TGI (LOX IMVI melanoma) was greater than 100 µM and the TGI (HL-60(TB) leukemia) was greater than 100 µM. It also gave a TGI (DU-145 prostate) greater than 100 µM, a TGI (SF-268 CNS) greater than 100 µM and a TGI (U251 CNS) greater than 100 µM. It also gave a TGI (NCI-H226 lung) greater than 100 µM, a TGI (A549 NSCLC) greater than 100 µM and a TGI (NCI/ADR-RES ovarian) greater than 100 µM. It also gave a TGI (HCT-116 colon) greater than 100 µM, a TGI (SK-OV-3 ovarian) greater than 100 µM and a TGI (NCI-H23 lung) greater than 100 µM. For the same compound, the TGI (MDA-MB-231 breast) was greater than 100 µM, the TGI (OVCAR-3 ovarian) was greater than 100 µM and the TGI (MDA-MB-435) was greater than 100 µM. The TGI (SK-MEL-28 melanoma) was greater than 100 µM, the TGI (ACHN renal) was greater than 100 µM and the TGI (SF-539 CNS) was 93.3 µM. The TGI (T-47D breast) was greater than 100 µM, the TGI (MCF7 breast) was greater than 100 µM and the TGI (HS 578T breast) was greater than 100 µM. For the same compound, the TGI (UO-31 renal) was greater than 100 µM, the TGI (PC-3 prostate) was greater than 100 µM and the TGI (NCI-H522 lung) was greater than 100 µM. It also gave a TGI (HT29 colon) greater than 100 µM, a TGI (UACC-62 melanoma) greater than 100 µM and a TGI (UACC-257 melanoma) greater than 100 µM. It also gave a TGI (CAKI-1 renal) greater than 100 µM, a TGI (CCRF-CEM leukemia) greater than 100 µM and a TGI (TK-10 renal) greater than 100 µM. It also gave a TGI (IGROV1 ovarian) greater than 100 µM, a TGI (EKVX NSCLC) greater than 100 µM and a TGI (HCC-2998 colon) greater than 100 µM. For the same compound, the TGI (K-562 leukemia) was greater than 100 µM, the TGI (RPMI-8226 leukemia) was greater than 100 µM and the TGI (NCI-H460 lung) was greater than 100 µM. The TGI (SNB-19 CNS) was greater than 100 µM, the TGI (786-0 renal) was greater than 100 µM and the TGI (SW-620 colon) was greater than 100 µM. The TGI (A498 renal) was greater than 100 µM.
